Results on 17 compounds are retold here after patent US5552520A, “Therapeutic peptide derivatives” (Biomeasure, Inc., priority 1994, dated 1996).

One assay deals with T1, somatostatin receptor (Rattus norvegicus, UniProt P30680).
T1 construct: SRIF-14 to rat AR42J pancreas membranes; endogenous in cells; host or cells: rat AR42J pancreatic cells (membrane preparation)
The experiment in a line: Somatostatin binding assay: in vitro inhibition of binding of [125I-Tyr11]SRIF-14 to rat AR42J pancreas membranes. To be noted: inhibition of [125I-Tyr11]SRIF-14 binding, read-out: IC50, in vitro binding affinity.

Assay [1] has as its system AR42J rat pancreas tumor cells. Kind of assay: Antiproliferative assay on AR42J cells. To be noted: Concentration 100 nM, AR42J Rat Pancreas Tumor Cells after 8 days. In kind it is cell-based. As for the experimental part:
The purified somatostatin analogs described above were also tested for activity against rapidly proliferating cells.
^1 Concentration 100 nM, AR42J Rat Pancreas Tumor Cells after 8 days.

For assay [2], the system named is stimulated growth hormone release. Kind of assay: Growth Hormone (GH) Inhibition Assay in rats (D-Ala2-GRF stimulated GH). The assay is classed as in vivo, male Sprague Dawley rats. To be noted: s.c.; for Inhibition of stimulated growth hormone release (percentile control): 25 μg/kg. As for the experimental part: Groups of five male Sprague Dawley rats (each having a weight between 250-300 g) were injected s.c. with a somatostatin derivative or saline. Thirty minutes prior to the selected post-drug time periods shown in table II (2 hours, 4 hours, 6 hours, 8 hours), rats were anesthetized with Nembutal i.p. (50 mg/kg). Fifteen minutes following anesthesia, an aliquot of blood was withdrawn by cardiac puncture over heparin to measure basal GH. Additionally, a s.c. injection of D-Ala^2 -GRF (10 μg/kg) was given. Fifteen minutes later, blood was withdrawn to quantitate the stimulated GH, which was measured in plasma using a radioimmunoassay supplied by NIADDKD. The percentage of GH inhibition was calculated from differences obtained between basal and stimulated GH values.
The efficacy of D-Phe-c[Cys-Tyr-D-Trp-Lys-Thr-Cys]-Nal-NH2 (SEQ ID NO. 113) (BIM-23060) in inhibiting growth hormone in rats is compared with other somatostatin derivatives (BIM-23167, BIM-23179, and BIM-23181) of the invention.
Additional experiments were conducted on D-Phe-c[Cys-Tyr-D-Trp-Lys-Abu-Cys]-Thr-NH2, (SEQ ID NO. 112) a somatostatin analog, and BIM-23190, BIM-23195 and BIM-23197, to determine the ED50 (i.e., the concentration of each compound required to inhibit fifty percent of growth hormone release after a specified time) of the respective compound. Experiments were conducted at a dose range of between 25 μg/kg and 0.25 μg/kg.

pIC50: −log10 of the molar value. Numbered stars: 1 amine (or outer) side, 2 acyl side, 3 side chain; on linkers, the order of the positions; unused ones are H or OH. Bridge positions count the residues as written; N and C are the ends. Square brackets hold non-standard residues; d marks the D form. Peptide text beside a SMILES is read from it. * marks the point of attachment. X2 = O=C([C@@H](Cc1ccccc1)N(CC(CO)(CO)CO)[*:1])[*:2]; 2Nal = N[C@@H](Cc1ccc2ccccc2c1)C(=O)O; X3 = O=C(CN(C(CO)(CO)CO)[*:1])[*:2]; X4 = O=C(CN1CCN(CCO)CC1)*

T1 sequence (P30680 whole entry): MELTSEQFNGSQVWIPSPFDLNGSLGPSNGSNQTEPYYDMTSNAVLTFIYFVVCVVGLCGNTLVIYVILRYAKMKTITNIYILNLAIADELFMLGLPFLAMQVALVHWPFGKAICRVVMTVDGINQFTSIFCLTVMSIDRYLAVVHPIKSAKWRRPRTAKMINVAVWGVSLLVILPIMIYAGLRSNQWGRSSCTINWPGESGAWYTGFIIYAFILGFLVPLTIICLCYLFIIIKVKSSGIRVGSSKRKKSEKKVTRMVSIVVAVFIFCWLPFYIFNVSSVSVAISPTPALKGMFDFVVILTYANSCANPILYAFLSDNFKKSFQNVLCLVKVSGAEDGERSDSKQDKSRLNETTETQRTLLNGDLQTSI

A word on the pIC50: it is the IC50 on a negative log10 scale, so that one unit is a factor of ten. Regarding `C[C@@H](O)[C@@H]1NC(=O)[C@H](CCCCN)NC(=O)[C@@H](Cc2c[nH]c3ccccc23)NC(=O)[C@H](Cc2ccc(O)cc2)NC(=O)[C@@H](NC(=O)[C@@H](Cc2ccccc2)NCC(CO)(CO)CO)CSSC[C@@H](C(=O)N[C@@H](Cc2ccc3ccccc3c2)C(N)=O)NC1=O` [BIM-23201, (HO-CH2)3 -C-CH2 -D-Phe-c[Cys-Tyr-D-Trp-Lys-Thr-Cys]-Nal-NH2] (H-[X2]CY[dW]KTC[2Nal]-NH2; disulfide 2-7), the negative logarithm of the IC50 (pIC50) on somatostatin receptor was 9.85.
`CC[C@@H]1NC(=O)[C@H](CCCCN)NC(=O)[C@@H](Cc2c[nH]c3ccccc23)NC(=O)[C@H](Cc2ccc(O)cc2)NC(=O)[C@@H](NC(=O)[C@@H](Cc2ccccc2)NC(=O)COC2=C(OCC(O)CO)C(=O)O[C@@H]2[C@@H](O)CO)CSSC[C@@H](C(=O)N[C@H](C(N)=O)[C@@H](C)O)NC1=O` (stereo partly drawn) [BIM-23183]: the “Cell growth (percent of control)” value in assay [1] is on record as 69.1% of control.
`CC[C@@H]1NC(=O)[C@H](CCCCN)NC(=O)[C@@H](Cc2c[nH]c3ccccc23)NC(=O)[C@H](Cc2ccc(O)cc2)NC(=O)[C@@H](NC(=O)[C@@H](Cc2ccccc2)NS(=O)(=O)CCN2CCN(CCO)CC2)CSSC[C@@H](C(=O)N[C@H](C(N)=O)[C@@H](C)O)NC1=O` [BIM-23197]: on somatostatin receptor, the pIC50 was 9.54.
Same read-out and setting: with `CC[C@@H]1NC(=O)[C@H](CCCCN)NC(=O)[C@@H](Cc2c[nH]c3ccccc23)NC(=O)[C@H](Cc2ccc(O)cc2)NC(=O)[C@@H](NC(=O)[C@@H](Cc2ccccc2)NC(=O)CN2CCN(CCOCCO)CC2)CSSC[C@@H](C(=O)N[C@H](C(N)=O)[C@@H](C)O)NC1=O` [BIM-23202] the figure was 9.74.
In the case of “D-Phe-c[Cys-Tyr-D-Trp-Lys-Thr-Cys]-Nal-NH2 [BIM-23060, reference compound]”, the “Inhibition of stimulated growth hormone release (percentile control)” value in assay [2] (2 Hours) came to 86.39 percentile control; in assay [2] (4 Hours), 64.96 percentile control; in assay [2] (6 Hours), 47.62 percentile control; in assay [2] (8 Hours) it was 38.15 percentile control.
`C[C@@H](O)[C@@H]1NC(=O)[C@H](CCCCN)NC(=O)[C@@H](Cc2c[nH]c3ccccc23)NC(=O)[C@H](Cc2ccc(O)cc2)NC(=O)[C@@H](NC(=O)[C@@H](Cc2ccccc2)NC(=O)CNC(CO)(CO)CO)CSSC[C@@H](C(=O)N[C@@H](Cc2ccc3ccccc3c2)C(N)=O)NC1=O` [BIM-23179, (HO-CH2)3 -C-NH-CH2 -CO-D-Phe-c[Cys-Tyr-D-Trp-Lys-Thr-Cys]-Nal-NH2] (H-[X3][dF]CY[dW]KTC[2Nal]-NH2; disulfide 3-8): the “Inhibition of stimulated growth hormone release (percentile control)” value in assay [2] (2 Hours) is listed as 92.79 percentile control; in assay [2] (4 Hours), 63.85 percentile control; in assay [2] (6 Hours) it was 67.78 percentile control; in assay [2] (8 Hours), 68.26 percentile control. Further, the pIC50 at somatostatin receptor was 9.92.
On to `CC[C@@H]1NC(=O)[C@H](CCCCN)NC(=O)[C@@H](Cc2c[nH]c3ccccc23)NC(=O)[C@H](Cc2ccc(O)cc2)NC(=O)[C@@H](NC(=O)[C@@H](Cc2ccccc2)NC(=O)CN2CCN(CCO)CC2)CSSC[C@@H](C(=O)N[C@H](C(N)=O)[C@@H](C)O)NC1=O` [BIM-23190], for which, at somatostatin receptor, the pIC50 was 9.70.
The same measure, in the same setting: with `CC[C@@H]1NC(=O)[C@H](CCCCN)NC(=O)[C@@H](Cc2c[nH]c3ccccc23)NC(=O)[C@H](Cc2ccc(O)cc2)NC(=O)[C@@H](NC(=O)[C@@H](Cc2ccccc2)NC(=O)CCC(=O)NC(CO)(CO)CO)CSSC[C@@H](C(=O)N[C@H](C(N)=O)[C@@H](C)O)NC1=O` [BIM-23173, (HO-CH2)3 -C-NH-CO-(CH2)2 -CO-D-Phe-c[Cys-Tyr-D-Trp-Lys-Abu-Cys]-Thr-NH2] the figure was 9.96.
As for `C[C@H](N)C(=O)NCC(=O)N[C@H]1CSSC[C@@H](C(=O)O)NC(=O)[C@H](CO)NC(=O)[C@H]([C@@H](C)O)NC(=O)[C@H](Cc2ccccc2)NC(=O)[C@H]([C@@H](C)O)NC(=O)[C@H](CCCCN)NC(=O)[C@H](Cc2c[nH]c3ccccc23)NC(=O)[C@H](Cc2ccccc2)NC(=O)[C@H](Cc2ccccc2)NC(=O)[C@H](CC(N)=O)NC(=O)[C@H](CCCCN)NC1=O` [SRIF-14, reference compound], the “Cell growth (percent of control)” value in assay [1] is recorded as 91.3% of control.
For the compound `CC[C@@H]1NC(=O)[C@H](CCCCN)NC(=O)[C@@H](Cc2c[nH]c3ccccc23)NC(=O)[C@H](Cc2ccc(O)cc2)NC(=O)[C@@H](NC(=O)[C@H](N)Cc2ccccc2)CSSC[C@@H](C(=O)N[C@H](C(N)=O)[C@@H](C)O)NC1=O` [BIM-23023, D-Phe-c[Cys-Tyr-D-Trp-Lys-Abu-Cys]-Thr-NH2, reference compound], the “ED50, inhibition of stimulated growth hormone release” value in assay [2] (2 Hours) was found to be 0.48 µg/kg; in assay [2] (4 Hours), 1.11 µg/kg; in assay [2] (6 Hours), 2.26 µg/kg; in assay [2] (8 Hours), 4.32 µg/kg.
As to `C[C@@H](O)[C@@H]1NC(=O)[C@H](CCCCN)NC(=O)[C@@H](Cc2c[nH]c3ccccc23)NC(=O)[C@H](Cc2ccc(O)cc2)NC(=O)[C@@H](NC(=O)[C@@H](Cc2ccccc2)NC(=O)CN2CCN(CCO)CC2)CSSC[C@@H](C(=O)N[C@@H](Cc2ccc3ccccc3c2)C(N)=O)NC1=O` [BIM-23191] (X4-[dF]CY[dW]KTC[2Nal]-NH2; disulfide 2-7), the negative-log IC50 (pIC50) on somatostatin receptor is 10.10.
On the same count and under the same terms, for `CC[C@@H]1NC(=O)[C@H](CCCCN)NC(=O)[C@@H](Cc2c[nH]c3ccccc23)NC(=O)[C@H](Cc2ccc(O)cc2)NC(=O)[C@@H](NC(=O)[C@@H](Cc2ccccc2)NS(=O)(=O)CCNC(CO)(CO)CO)CSSC[C@@H](C(=O)N[C@H](C(N)=O)[C@@H](C)O)NC1=O` [BIM-23196] the value was 10.05; for `CC[C@@H]1NC(=O)[C@H](CCCCN)NC(=O)[C@@H](Cc2c[nH]c3ccccc23)NC(=O)[C@H](Cc2ccc(O)cc2)NC(=O)[C@@H](NC(=O)[C@@H](Cc2ccccc2)NCC(CO)(CO)CO)CSSC[C@@H](C(=O)N[C@H](C(N)=O)[C@@H](C)O)NC1=O` [BIM-23195, (Ho-CH2)3 C-CH2 -D-Phe-C[Cys-Tyr-D-Trp-Lys-Abu-Cys]-Thr-NH2], 10.10.
Take `CC(=O)OCC(COC(C)=O)(COC(C)=O)NC(=O)CCC(=O)N[C@H](Cc1ccc2ccccc2c1)C(=O)N[C@H]1CSSC[C@@H](C(=O)N[C@H](C(N)=O)[C@@H](C)O)NC(=O)[C@H](C(C)C)NC(=O)[C@H](CCCCN)NC(=O)[C@@H](Cc2c[nH]c3ccccc23)NC(=O)[C@H](Cc2ccc(O)cc2)NC1=O` [BIM-23107, (AcO-CH2)3 -C-NH-CO-(CH2)2 -CO-D-Nal-c[Cys-Tyr-D-Trp-Lys-Val-Cys]-Thr-NH2]: the “Cell growth (percent of control)” value in assay [1] was 67.5% of control.
For `CC(C)[C@@H]1NC(=O)[C@H](CCCCN)NC(=O)[C@@H](Cc2c[nH]c3ccccc23)NC(=O)[C@H](Cc2ccc(O)cc2)NC(=O)[C@@H](NC(=O)[C@@H](Cc2ccc3ccccc3c2)NC(=O)COC2=C(O)C(=O)O[C@@H]2[C@@H](O)CO)CSSC[C@@H](C(=O)N[C@H](C(N)=O)[C@@H](C)O)NC1=O` [BIM-23135], the “Cell growth (percent of control)” value in assay [1] is recorded as 62.9% of control.
For the compound `CC(C)[C@@H]1NC(=O)[C@H](CCCCN)NC(=O)[C@@H](Cc2c[nH]c3ccccc23)NC(=O)[C@H](Cc2ccc(O)cc2)NC(=O)[C@@H](NC(=O)[C@@H](Cc2ccc3ccccc3c2)NC(=O)CCC(=O)NC(CO)(CO)CO)CSSC[C@@H](C(=O)N[C@H](C(N)=O)[C@@H](C)O)NC1=O` [BIM-23158, (HO-CH2)3 -C-NH-CO-(CH2)2 -CO-D-Nal-c[Cys-Tyr-D-Trp-Lys-Val-Cys]-Thr-NH2], the pIC50 on somatostatin receptor is 9.48.
Consider `CC[C@@H]1NC(=O)[C@H](CCCCN)NC(=O)[C@@H](Cc2c[nH]c3ccccc23)NC(=O)[C@H](Cc2ccc(O)cc2)NC(=O)[C@@H](NC(=O)[C@@H](Cc2ccccc2)NC(=O)CNC(CO)(CO)CO)CSSC[C@@H](C(=O)N[C@H](C(N)=O)[C@@H](C)O)NC1=O` [BIM-23182, (HO-CH2)3 -C-NH-CH2 -CO-D-Phe-c[Cys-Tyr-D-Trp-Lys-Abu-Cys]-Thr-NH2], for which the pIC50 at somatostatin receptor was 9.92.
